Assay: Liposome encapsulation test, remote loading method (Experimental Example 4);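 as to Encapsulation efficiency: encapsulated compound as percent of compound amount introduced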
Assay type: physicochemical
Conditions: Compound concentration when encapsulated 10 mg/mL
Procedure: For Example 1, Example 2, Example 3, Example 4, Example 5, Example 6, Example 7, Example 8, Example 9, Example 10, Example 11, Example 12, Example 13, Example 14, Example 15, Example 16, Example 17 and Alvocidib, an encapsulation test in liposomes was performed using a remote loading method.
<Liposome Encapsulation Test of Example 1, Example 2, Example 5, Example 6, Example 9, Example 10, Example 11, Example 12, Example 13, Example 14, Example 15, and Example 16>
Hydrogenated soybean phosphatidylcholine (COATSOME NC-21E, manufactured by NOF CORPORATION, 7.77 g), cholesterol (manufactured by Sigma, 2.78 g) and distearoylphosphatidylethanolamine-methoxypolyethylene glycol 2000 (SUNBRIGHT DSPE-020CN, manufactured by NOF CORPORATION, 2.47 g) were dissolved in tert-butyl alcohol (720 mL) warmed to 65° C. The solution was placed in an eggplant flask and frozen in a dry ice-acetone bath, and then the tert-butyl alcohol was removed by evaporation under reduced pressure to give a lipid mixture.
To the above lipid mixture was added a 250 mM ammonium sulfate solution (240 mL), and the mixture was warmed to 65° C., and dispersed by a homogenizer (ULTRA-TURRAX, manufactured by IKA) to give a crude liposome dispersion. Then, the crude liposome dispersion was dispersed by a high pressure homogenizer (Nano-Mizer NM2, manufactured by YOSHIDA KIKAI CO., LTD.) at a pressure of 100 MPa to give liposomes with an average particle size (Z-average) of about 80 nm. The liposome outer solution was replaced with 10 mM L-histidine/10% sucrose solution (pH 6.5) using a dialysis cassette (Slide-A-Lyzer G2 Dialysis Cassettes 20K MWCO, manufactured by Thermo Scientific) to give an empty liposome solution. The solution was filtered through a 0.22 μm membrane filter, and a 10 mM L-histidine/10% sucrose solution (pH 6.5) was added thereto to adjust the total lipid concentration to 50 mM (50 μmol/mL). The lipid concentration was determined by quantitatively analyzing cholesterol using HPLC and calculating the total lipid concentration from the lipid mixing ratio. The amount for the above adjustment was increased or decreased as appropriate.
The compound (10 mg) was weighed, and the empty liposome solution (1 mL) with a total lipid concentration of 50 mM was added thereto. The solution was adjusted to pH 5 to 6 with 1 mol/L hydrochloric acid or 1 mol/L aqueous sodium hydroxide solution as necessary, warmed in a 65° C. water bath for 2 to 3 minutes, and ice-cooled. The mixture was centrifuged at 15,000×g for 5 minutes to precipitate and remove insoluble substances.
The liposome solution (100 μL) after removing insoluble substances was taken on an ultrafiltration filter (Amicon Ultra, 100K, 0.5 mL, manufactured by Merck) and centrifuged at 4° C., 15,000×g for 10 minutes. The compound concentrations in the liposome solution after removing insoluble substances and in the filtrate after ultrafiltration were determined by HPLC, and the encapsulation rate, encapsulation efficiency, and encapsulated compound content per 50 μmol of lipid were calculated by the following formula.
The measurement conditions for HPLC are as follows.
An empty liposome solution with a total lipid concentration of 75 mM was prepared by the same procedure as for the above example compound group. Each compound was weighed, and the empty liposome solution with a total lipid concentration of 75 mM was added thereto such that the compound concentration became 15 mg/mL. The solution was adjusted to pH 5 to 6 with 1 mol/L hydrochloric acid or 1 mol/L aqueous sodium hydroxide solution, warmed in a 65° C. water bath for 3 minutes, and ice-cooled. Hereafter, the encapsulation rate and encapsulation efficiency were calculated by the same procedure as for the above example compound group. The encapsulated compound content per 50 μmol of lipid was calculated by the following formula.
[formula] <Liposome Encapsulation Test of Example 7, Example 8 and Example 17> […]

| Compound | Encapsulated compound content per 50 μmol of lipid [mg] | Encapsulation efficiency [%] | Encapsulation rate [%] |
| --- | --- | --- | --- |
| CN1CC[C@H](c2c(OC(=O)N(Cc3ccccc3)CC3CCCCN3)cc(O)c3c(=O)cc(-c4ccccc4Cl)oc23)[C@H](O)C1 (stereo partly drawn) [Example 15, 2-(2-chlorophenyl)-5-hydroxy-8-[(3S,4R)-3-hydroxy-1-methylpiperidin-4-yl]-4-oxo-4H-1-benzopyran-7-yl benzyl [(piperidin-2-yl)methyl]carbamate] | 2.2 | 22.2 | 23.6 |
| CCN(CCC1CCCCN1)C(=O)Oc1cc(O)c2c(=O)cc(-c3ccccc3Cl)oc2c1[C@H]1CCN(C)C[C@H]1O (stereo partly drawn) [Example 16, 2-(2-chlorophenyl)-5-hydroxy-8-[(3S,4R)-3-hydroxy-1-methylpiperidin-4-yl]-4-oxo-4H-1-benzopyran-7-yl ethyl[2-(piperidin-2-yl)ethyl]carbamate] | 2.2 | 21.7 | 20.7 |

Source: US12617779B2, “Self degradation-type CDK9 inhibitor prodrug and liposome encapsulating same” (Sumitomo Pharma Co., Ltd., priority 2021, dated 2026)
